From patent US4315023A, “1-Phenethylimidazole derivatives” (Westwood Pharmaceuticals, Inc., priority 1980, dated 1982)
Structures can show the parent of a compound that is named as a salt. One block for each compound: values may come before it.

Key:
Candida albicans = Candida albicans induced vaginal infection in mice; type: in vivo, female mice; conditions: for EC50, Candida Vaginal Infection: Table I, percentage drug concentration giving 50% of the score of untreated control, intravaginal; for EC50 (%) (95% CL), Candida vaginal infection: Table II, N = 5, 5 applications day 0 to 4; for Score, Determination A / Score, Determination B / Score, Mean / Score, Determination C / Score, Determination D: score 0-4
Protocol: A majority of the compounds of formula 3 were evaluated together with the prior art compound of formula 2 in a Candida albicans induced vaginal infection in mice and a Trichophyton quinekeanum induced skin infection in guinea pigs. Sabouraud broth was inoculated with Candida albicans and the inoculum incubated for two days at 28° C. on a rotary shaker. Groups of four to five female mice weighing between 18-21 grams were infected intravaginally with a 0.01 ml portion of the cell suspension containing 10^8 cells/ml on day 0. The mice were treated subcutaneously with 0.5 mg of estradiol benzoate three days before and four days after infection. The test compounds were suspended in 1% carboxymethyl cellulose and 0.02 ml of the suspension was instilled intravaginally from day 0 (four hours after infection) to day 4 (5 applications). On day 7, vaginal exudate was taken by a thin glass rod and streaked on a YGP agar plate containing 100 mcg/ml of chloramphenicol. The plate was incubated for two days at 28° C. […] In the following Table I the antifungal activity of the test compound is reported as the EC50 value, which is the percentage drug concentration giving 50% of the score of untreated control animals. The EC50 was calculated by the method of least squares (K. Brounlee: Statistical Theory and Methodology in Science and Engineering, pages 345-349, Wiley Press, New York, 1965). In Table II a more detailed comparison on the in vivo antifungal activities of compound 3a and the isomeric prior art compound 2 are shown together with the data for compound 3b.

Trichophyton quinekeanum = Trichophyton quinekeanum induced skin infection in guinea pigs; type: in vivo, male guinea pigs; conditions: for EC50, Trichophyton Skin Infection: Table I, percentage drug concentration giving 50% of the score of untreated control, topical ointment; for EC50 (%) (95% CL), Trichophyton skin infection: Table II, N = 4, 3 applications day 1, 3 and 5; for Score, Determ. F / Score, Mean / Score, Determ. G / Score, Determ. E: lesion score 0-4
Protocol: In the guinea pig skin infection test, Trichophyton quinekeanum was cultured on a YGP agar slant at 28° C. for 10 days. Spores were collected from the mycelial mat and suspended in Sabouraud broth containing 2% of Tween 80. Groups of 3 male guinea pigs weighing between 400-500 g were used for each dose of test compound. The flanks of the animals were depilated and injured with sandpaper. The injured area was inoculated and rubbed with a glass rod on day 0 with 0.2 ml of the spore suspension containing 10^8 CFU/ml. The test compound was combined with a 1:1 mixture of polyethylene glycol 400 and 4000, and 0.3 ml of the ointment was applied to the infected area on day 1, 3 and 5. Lesions were examined on day 7 and scored as follows: 0, normal; 1, erythema; 2, erythema with whitish area; 3, erythema and numerous whitish areas; 4, erythema with confluent scaling and whitish pateches. A compound showing a mean score of 1.5 or less was considered active.
In the following Table I the antifungal activity of the test compound is reported as the EC50 value, which is the percentage drug concentration giving 50% of the score of untreated control animals. The EC50 was calculated by the method of least squares (K. Brounlee: Statistical Theory and Methodology in Science and Engineering, pages 345-349, Wiley Press, New York, 1965). In Table II a more detailed comparison on the in vivo antifungal activities of compound 3a and the isomeric prior art compound 2 are shown together with the data for compound 3b.
Treatment: 5 applications (day 0 to 4) against candida vaginal infection
and 3 applications (day 1, 3 and 5) against trichophyton skin infection

Staphylococcus aureus = assay: in vitro antibacterial activity (MIC), S. aureus; type: cell-based; conditions: Nutrient Broth
S. faecalis = assay: in vitro antibacterial activity (MIC), S. faecalis; type: cell-based, Streptococcus faecalis; conditions: Enterococcus faecalis; Nutrient Broth
Streptococcus pyogenes = assay: in vitro antibacterial activity (MIC), S. pyogenes; type: cell-based; conditions: 50% Nutrient Broth + 5% human serum
Streptococcus pneumoniae = assay: in vitro antibacterial activity (MIC), S. pneumoniae; type: cell-based; conditions: 50% Nutrient Broth + 5% human serum

EC50, Candida Vaginal Infection (Candida albicans): > 0.3%
EC50 (%) (95% CL), Candida vaginal infection (Candida albicans): > 0.3%
EC50, Trichophyton Skin Infection (Trichophyton quinekeanum): 0.10%
EC50 (%) (95% CL), Trichophyton skin infection (Trichophyton quinekeanum): 0.10%
Compound: Clc1ccc(SCCSC(Cn2ccnc2)c2ccc(Cl)cc2Cl)cc1 (centres unmarked) [Compound 2, reference compound]
Score, Determination A (Candida albicans; conc. 0.03%): 2.8
Score, Determination B (Candida albicans; conc. 0.03%): 3.2
Score, Mean (Candida albicans; conc. 0.03%): 3.0
Score, Determination A (Candida albicans; conc. 0.1%): 2.4
Score, Determination B (Candida albicans; conc. 0.1%): 3.0
Score, Mean (Candida albicans; conc. 0.1%): 2.7
Score, Determination A (Candida albicans; conc. 0.3%): 3.4
Score, Determination B (Candida albicans; conc. 0.3%): 1.8
Score, Mean (Candida albicans; conc. 0.3%): 2.6
Score, Determ. F (Trichophyton quinekeanum; conc. 0.03%): 2.3
Score, Mean (Trichophyton quinekeanum; conc. 0.03%): 2.3
Score, Determ. F (Trichophyton quinekeanum; conc. 0.1%): 2.3
Score, Mean (Trichophyton quinekeanum; conc. 0.1%): 2.3
Score, Determ. F (Trichophyton quinekeanum; conc. 0.3%): 0.5
Score, Mean (Trichophyton quinekeanum; conc. 0.3%): 0.5

MIC (Staphylococcus aureus; Strain A): 0.5 µg/mL
MIC (Staphylococcus aureus; Strain B): > 63 µg/mL
MIC (Staphylococcus aureus; Strain C): > 63 µg/mL
EC50, Candida Vaginal Infection (Candida albicans): 0.0035%
EC50 (%) (95% CL), Candida vaginal infection (Candida albicans): 0.0035%
MIC (S. faecalis): > 63 µg/mL
MIC (Streptococcus pyogenes): 63 µg/mL
MIC (Streptococcus pneumoniae): 63 µg/mL
EC50, Trichophyton Skin Infection (Trichophyton quinekeanum): 0.039%
EC50 (%) (95% CL), Trichophyton skin infection (Trichophyton quinekeanum): 0.039%
Compound: Clc1ccc(CSCSC(Cn2ccnc2)c2ccc(Cl)cc2Cl)cc1 (centres unmarked) [Compound 3a, 1-[2-(4-Chlorobenzylthiomethylthio)-2-(2,4-dichlorophenyl)ethyl]1-H-imidazole hydrogen fumarate]
Score, Determination A (Candida albicans; conc. 0.0003%): 2.8
Score, Determination B (Candida albicans; conc. 0.0003%): 2.2
Score, Determination C (Candida albicans; conc. 0.0003%): 3.4
Score, Determination D (Candida albicans; conc. 0.0003%): 2.5
Score, Mean (Candida albicans; conc. 0.0003%): 2.6
Score, Determination A (Candida albicans; conc. 0.001%): 3.0
Score, Determination B (Candida albicans; conc. 0.001%): 2.2
Score, Determination C (Candida albicans; conc. 0.001%): 2.8
Score, Determination D (Candida albicans; conc. 0.001%): 2.0
Score, Mean (Candida albicans; conc. 0.001%): 2.5
Score, Determination A (Candida albicans; conc. 0.003%): 1.4
Score, Determination B (Candida albicans; conc. 0.003%): 2.2
Score, Determination C (Candida albicans; conc. 0.003%): 3.0
Score, Determination D (Candida albicans; conc. 0.003%): 1.3
Score, Mean (Candida albicans; conc. 0.003%): 2.0
Score, Determination A (Candida albicans; conc. 0.01%): 1.5
Score, Determination B (Candida albicans; conc. 0.01%): 0.4
Score, Determination C (Candida albicans; conc. 0.01%): 1.3
Score, Determination D (Candida albicans; conc. 0.01%): 1.3
Score, Mean (Candida albicans; conc. 0.01%): 1.1
Score, Determination A (Candida albicans; conc. 0.03%): 0.6
Score, Determination B (Candida albicans; conc. 0.03%): 0.8
Score, Determination C (Candida albicans; conc. 0.03%): 0
Score, Determination D (Candida albicans; conc. 0.03%): 0.4
Score, Mean (Candida albicans; conc. 0.03%): 0.45
times more efficacious than prior art compound 2, Candida induced vaginal infection in mice (Candida albicans; relative to prior art compound 2 (for 3a: hydrogen fumarate vs hydrogen fumarate)): greater than 85 times
Score, Determ. G (Trichophyton quinekeanum; conc. 0.01%): 2.0
Score, Mean (Trichophyton quinekeanum; conc. 0.01%): 2.0
Score, Determ. E (Trichophyton quinekeanum; conc. 0.03%): 1.8
Score, Determ. F (Trichophyton quinekeanum; conc. 0.03%): 2.5
Score, Determ. G (Trichophyton quinekeanum; conc. 0.03%): 1.5
Score, Mean (Trichophyton quinekeanum; conc. 0.03%): 1.9
Score, Determ. E (Trichophyton quinekeanum; conc. 0.1%): 1.5
Score, Determ. F (Trichophyton quinekeanum; conc. 0.1%): 1.0
Score, Determ. G (Trichophyton quinekeanum; conc. 0.1%): 0.3
Score, Mean (Trichophyton quinekeanum; conc. 0.1%): 0.92
Score, Determ. E (Trichophyton quinekeanum; conc. 0.3%): 1.0
Score, Determ. F (Trichophyton quinekeanum; conc. 0.3%): 0
Score, Determ. G (Trichophyton quinekeanum; conc. 0.3%): 0
Score, Mean (Trichophyton quinekeanum; conc. 0.3%): 0.33
times more efficacious than prior art compound 2, Trichophyton induced skin infection in guinea pigs (Trichophyton quinekeanum; hydrogen fumarate of 3a vs prior art compound 2): about 2.5 times

MIC (Staphylococcus aureus; Strain A): > 63 µg/mL
MIC (Staphylococcus aureus; Strain B): > 63 µg/mL
MIC (Staphylococcus aureus; Strain C): > 63 µg/mL
EC50, Candida Vaginal Infection (Candida albicans): 0.0011%
EC50 (%) (95% CL), Candida vaginal infection (Candida albicans): 0.0011%
MIC (S. faecalis): > 63 µg/mL
MIC (Streptococcus pyogenes): > 63 µg/mL
MIC (Streptococcus pneumoniae): > 63 µg/mL
EC50, Trichophyton Skin Infection (Trichophyton quinekeanum): 0.053%
EC50 (%) (95% CL), Trichophyton skin infection (Trichophyton quinekeanum): 0.053%
Compound: Cl.Clc1ccc(CSCSC(Cn2ccnc2)c2ccc(Cl)cc2Cl)cc1 (centres unmarked) [Compound 3b, 1-[2-(4-Chlorobenzylthiomethylthio)-2-(2,4-dichlorophenyl)ethyl]-1H-imidazole hydrochloride]
Score, Determination C (Candida albicans; conc. 0.0003%): 1.6
Score, Determination D (Candida albicans; conc. 0.0003%): 3.3
Score, Mean (Candida albicans; conc. 0.0003%): 2.5
Score, Determination A (Candida albicans; conc. 0.001%): 3.0
Score, Determination C (Candida albicans; conc. 0.001%): 1.6
Score, Determination D (Candida albicans; conc. 0.001%): 0.4
Score, Mean (Candida albicans; conc. 0.001%): 1.7
Score, Determination A (Candida albicans; conc. 0.003%): 0.4
Score, Determination B (Candida albicans; conc. 0.003%): 2.0
Score, Determination C (Candida albicans; conc. 0.003%): 2.2
Score, Determination D (Candida albicans; conc. 0.003%): 0.2
Score, Mean (Candida albicans; conc. 0.003%): 1.2
Score, Determination A (Candida albicans; conc. 0.01%): 1.4
Score, Determination B (Candida albicans; conc. 0.01%): 0.6
Score, Determination C (Candida albicans; conc. 0.01%): 1.4
Score, Determination D (Candida albicans; conc. 0.01%): 0
Score, Mean (Candida albicans; conc. 0.01%): 0.85
Score, Determination A (Candida albicans; conc. 0.03%): 0
Score, Determination B (Candida albicans; conc. 0.03%): 0.8
Score, Determination C (Candida albicans; conc. 0.03%): 2.4
Score, Determination D (Candida albicans; conc. 0.03%): 0.8
Score, Mean (Candida albicans; conc. 0.03%): 1.0
Score, Determination A (Candida albicans; conc. 0.1%): 0.2
Score, Determination B (Candida albicans; conc. 0.1%): 0
Score, Mean (Candida albicans; conc. 0.1%): 0.1
Score, Determination A (Candida albicans; conc. 0.3%): 0
Score, Determination B (Candida albicans; conc. 0.3%): 0
Score, Mean (Candida albicans; conc. 0.3%): 0
Score, Determ. F (Trichophyton quinekeanum; conc. 0.03%): 3.5
Score, Determ. G (Trichophyton quinekeanum; conc. 0.03%): 1.3
Score, Mean (Trichophyton quinekeanum; conc. 0.03%): 2.4
Score, Determ. F (Trichophyton quinekeanum; conc. 0.1%): 1.0
Score, Determ. G (Trichophyton quinekeanum; conc. 0.1%): 0.3
Score, Mean (Trichophyton quinekeanum; conc. 0.1%): 0.7
Score, Determ. F (Trichophyton quinekeanum; conc. 0.3%): 0.3
Score, Determ. G (Trichophyton quinekeanum; conc. 0.3%): 0.3
Score, Mean (Trichophyton quinekeanum; conc. 0.3%): 0.3

MIC (Staphylococcus aureus; Strain A): 0.5 µg/mL
MIC (Staphylococcus aureus; Strain B): > 63 µg/mL
MIC (Staphylococcus aureus; Strain C): 0.5 µg/mL
EC50, Candida Vaginal Infection (Candida albicans): 0.0042%
MIC (S. faecalis): 2 µg/mL
MIC (Streptococcus pyogenes): 63 µg/mL
MIC (Streptococcus pneumoniae): 63 µg/mL
EC50, Trichophyton Skin Infection (Trichophyton quinekeanum): 0.046%
Compound: Cc1ccc(CSCSC(Cn2ccnc2)c2ccc(Cl)cc2Cl)cc1.O=C(O)/C=C/C(=O)O (centres unmarked) [Compound 3c, 1-[2-(2,4-Dichlorophenyl)-2-(4-methylbenzylthiomethylthio)ethyl]-1H-imidazole hydrogen fumarate]
